system: smooth muscle cells (SMC); experiment: anti-proliferation assay (perlecan); type: cell-based; conditions: using the same activity scale used in Table 3
Experimental: The activity scale used in Table 3 as follows (numbers are inclusive): “+++” represents IC50 of less than about 3 μM; “++” represents IC50 of between about 3 and about 7 μM; and “+” represents IC50 of greater than about 7 μM. In addition, compounds, to include compositions thereof, encompassed within the scope of structures Ia-XXIVa, respectively, or listed in Tables 1A and 1E may be likewise employed in this embodiment and/or aspect of the present invention. Further, any hydrogen atoms that are required for any atom to attain its usual valence in a structure presented in Table 3, whether a carbon atom or a heteroatom, should be inferred if it is not specifically indicated.
In addition to the above compounds, the following compounds and compositions comprising these compounds are active in an anti-proliferation assay (Perlecan). These compounds and compositions comprising these compounds are, among other things, generally useful for treating cardiovascular disorders associated with proliferative activity. Specifically, these compounds include N^2-cycloheptyl-N^4-(3-fluoro-4-methoxyphenyl)-N^6-methyl-N^6-(1-methyl-piperidin-4-yl)-1,3,5-triazine-2,4,6-triamine, and N^2-cycloheptyl-N^4-methyl-N^4-(1-methyl-piperidin-4-yl)-N^6-naphthalen-2-yl-1,3,5-triazine-2,4,6-triamine.
Methods for identifying the activity and screening for one or more of these compounds or molecules that induce synthesis of proteoglycans such as HSPG (heparan sulfate proteoglycan) are taught in U.S. patent application Ser. No. 10/091,357, which is incorporated herein in its entirety. Assays of effects of compounds in vivo are also taught in the incorporated references and are known to those skilled in the art. In general, methods comprise the addition of such compounds to assays and measurement of HSPG synthesis including, but not limited to, the production of syndecans, glypicans and perlecans, for example, syndecans 1, 2 and 4; and glypican-1. Other assays that can be used to determine the activity of the compounds of the present invention include other methods for measuring the induction of perlecan synthesis. For example, in one assay, perlecan is induced in cells by certain inducers, and the response is measured. Compounds of the present invention are then added to a replicate assay and the effect on perlecan induction is determined. Using such methods, compounds are determined that can either inhibit perlecan, elevate induction of perlecan, or that have no effect at all. Those compounds that are effective as therapeutic agents can then be used in animals, humans or patients with cellular proliferation disease aspects, such as vascular-associated diseases or SMC proliferation pathologies.
Another assay for determining compounds having SMC effects comprises adding a composition suspected of affecting SMC proliferation to smooth muscle cells in growth medium or serum-free medium. The change in cell proliferation can be measured by methods known to those skilled in the art, such as incorporation of labeled nucleotides into dividing cells' DNA, and compared to the proliferation of cells which are not treated with the compound. Other measurements include directly determining levels of HSPG synthesis by measuring the amount or change in amount of HSPG such as with ELISA for HSPGs, and compared to the amount of HSPG synthesis in untreated cells. Other indirect or direct measurement are contemplated by the present invention and are known to those skilled in the art. For example, such methods include, but are not limited to, measurement of RNA levels, RT-PCR, Northern blotting, Western blotting promoter-based assays to identify compounds that affect one or more proteoglycans and assays for proteoglycan biological activity shown by recombinant proteins, partially purified proteins, or lysates from cells expressing proteoglycans in the presence or absence of compounds of interest.

Structure (SMILES)	activity in anti-proliferation assay (Perlecan), in words
CCN1CCCC1CNc1nc(Nc2ccc(OC)c(F)c2)nc(N2CCN(CC(=O)N3CCCC3)CC2)n1.Cl.Cl (centres unmarked)	high activity
COc1ccc(Nc2nc(NCCNC(=O)CCCCC3SCC4NC(=O)NC43)nc(NC3CCCCCC3)n2)cc1Cl (centres unmarked)	high activity
COc1ccc(Nc2nc(NC3CCCCCC3)nc(-c3c(O)ccc4ccccc34)n2)cc1Cl [1-[4-(3-Chloro-4-methoxy-phenylamino)-6-cycloheptylamino-[1,3,5]triazin-2-yl]-naphthalen-2-ol]	high activity
COc1ccc(Nc2nc(NC3CCCCCC3)nc(Oc3ccc(C(C)=O)cc3Cl)n2)cc1Cl [1-{3-Chloro-4-[4-(3-chloro-4-methoxy-phenylamino)-6-cycloheptylamino-[1,3,5]triazin-2-yloxy]-phenyl}-ethanone]	high activity
COc1ccc(Nc2nc(NC3CCCCCC3)nc(OC3CCCN(C(C)=O)C3)n2)cc1Cl (centres unmarked) [1-{3-[4-(3-Chloro-4-methoxy-phenylamino)-6-cycloheptylamino-[1,3,5]triazin-2-yloxy]-piperidin-1-yl}-ethanone]	high activity
COc1ccc(Nc2nc(NC3CCCCCC3)nc(Oc3ccc(C(C)=O)cc3)n2)cc1Cl [1-{4-[4-(3-Chloro-4-methoxy-phenylamino)-6-cycloheptylamino-[1,3,5]triazin-2-yloxy]-phenyl}-ethanone]	high activity
CCN1CCCC1CNc1nc(Nc2ccc(OC)c(F)c2)nc(N2CCN(CC(=O)N3CCCC3)CC2)n1 (centres unmarked) [2-{4-[4-[(1-Ethyl-pyrrolidin-2-ylmethyl)-amino]-6-(3-fluoro-4-methoxy-phenylamino)-[1,3,5]triazin-2-yl]-piperazin-1-yl}-1-pyrrolidin-1-yl-ethanone]	high activity
CCc1occc(=O)c1Oc1nc(Nc2ccc(OC)c(Cl)c2)nc(NC2CCCCCC2)n1 [3-[4-(3-Chloro-4-methoxy-phenylamino)-6-cycloheptylamino-[1,3,5]triazin-2-yloxy]-2-ethyl-pyran-4-one]	high activity
CCOC(=O)/C=C/c1ccc(Oc2nc(Nc3ccc(OC)c(Cl)c3)nc(NC3CCCCCC3)n2)cc1 [3-{4-[4-(3-Chloro-4-methoxy-phenylamino)-6-cycloheptylamino-[1,3,5]triazin-2-yloxy]-phenyl}-acrylic acid ethyl ester]	high activity
COc1ccc(Nc2nc(NC3CCCCCC3)nc(NC3CCN(C(=O)CCCCC4SCC5NC(=O)NC54)CC3)n2)cc1Cl (centres unmarked) [4-(5-{4-[4-(3-Chloro-4-methoxy-phenylamino)-6-cycloheptylamino-[1,3,5]triazin-2-ylamino]-piperidin-1-yl}-5-oxo-pentyl)-tetrahydro-thieno[3,4-d]imidazol-2-one]	high activity
COc1ccc(Nc2nc(NC3CCCCCC3)nc(-c3ccc(O)cc3O)n2)cc1Cl [4-[4-(3-Chloro-4-methoxy-phenylamino)-6-cycloheptylamino-[1,3,5]triazin-2-yl]-benzene-1,3-diol]	high activity
COc1ccc(Nc2nc(NC3CCCCCC3)nc(Oc3ccc(/C=N\O)cc3)n2)cc1Cl [4-[4-(3-Chloro-4-methoxy-phenylamino)-6-cycloheptylamino-[1,3,5]triazin-2-yloxy]-benzaldehyde oxime]	high activity
COc1ccc(Nc2nc(NC3CCCCCC3)nc(Oc3ccc(C=O)cc3)n2)cc1Cl [4-[4-(3-Chloro-4-methoxy-phenylamino)-6-cycloheptylamino-[1,3,5]triazin-2-yloxy]-benzaldehyde]	high activity
COc1ccc(Nc2nc(NC3CCCCCC3)nc(Oc3ccccc3C#CC(C)(C)O)n2)cc1Cl [4-{2-[4-(3-Chloro-4-methoxy-phenylamino)-6-cycloheptylamino-[1,3,5]triazin-2-yloxy]-phenyl}-2-methyl-but-3-yn-2-ol]	high activity

Source: patent publication US7335770B2, “Triazine compounds and their analogs, compositions, and methods” (Reddy U5 Therapeutics, Inc., priority 2004, dated 2008)
